Literature values in patent US10507204B2, “Pharmaceutical composition comprising amorphous lenalidomide” (SYNTHON B.V., priority 2014, dated 2019).

solubility in water: slightly soluble
Compound: Nc1cccc2c1CN(C1CCC(=O)NC1=O)C2=O (racemic) [Lenalidomide, (RS)-3-(4-Amino-1-oxo 1,3-dihydro-2H-isoindol-2-yl)piperidine-2,6-dione]
